Legend:
[1] = system: human breast cancer cell line (MCF-7); assay: MTT cytotoxic assay, MCF-7; assay type: cell-based; settings: MCF7, 48 h exposure
Experimental: (§1) All the compounds (1–3, 4a–o) were evaluated for their in vitro cytotoxic activity against three cancer cell lines including human breast cancer cell line (MCF-7), human hepatocarcinoma cell line (SMMC-7721), human cervical carcinoma cell line (HeLa), and a noncancerous human hepatocyte cell line (LO2) using the MTT assay method. An anticancer drug etoposide (VP-16) was co-assayed as the positive control. The results of the test compounds shown as IC50 values (concentration required to inhibit tumor cell proliferation by 50%), are listed in Table 1.
(§2) The in vitro cytotoxic activities of the quinoxaline derivatives of DAA were evaluated against a human breast cancer cell line (MCF-7), human hepatocarcinoma cell line (SMMC-7721), human cervical carcinoma cell line (HeLa) and noncancerous human hepatocyte cells (LO2) via the MTT colorimetric method. Briefly, different tumor cells were grown in DMEM supplemented with 10% fetal bovine serum, penicillin (100 U/mL), and streptomycin (50 μg/mL). Cells were harvested at the log phase of growth and seeded in 96-well plates (100 μL/well at a density of 2 × 10^5 cells/mL). After 24 h of incubation at 37 °C and 5% CO2 to allow for cell attachment, cultures were exposed to various concentrations of the isolated compounds for 48 h. Finally, the MTT solution (2.5 mg/mL in PBS) was added (40 μL/well). Plates were further incubated for 4 h at 37 °C, and the formazan crystals formed were dissolved by adding 150 μL/well of DMSO. Absorption at 570 nm was measured with an ELISA plate reader. The results were expressed as IC50 values with standard deviations, which were defined as the concentrations at which a 50% survival of the cells was discerned. Etoposide (VP-16) was co-assayed as the positive control.

[2] = system: human hepatocarcinoma cell line (SMMC-7721); assay: MTT cytotoxic assay, SMMC-7721; assay type: cell-based; settings: 48 h exposure
Experimental: as §1, §2

[3] = system: human cervical carcinoma cell line (HeLa); assay: MTT cytotoxic assay, HeLa; assay type: cell-based; settings: 48 h exposure
Experimental: as §1, §2

[4] = system: noncancerous human hepatocyte cells (LO2); assay: MTT cytotoxic assay, LO2; assay type: cell-based; settings: 48 h exposure, noncancerous hepatocytes
Experimental: as §1, §2

[5] = system: three cancer cell lines (MCF-7, SMMC-7721, HeLa); assay: MTT cytotoxic assay, summary statements over the three cancer cell lines; assay type: cell-based, human; settings: for cytotoxic activity against the three cancer cell lines (in words): MCF-7, SMMC-7721, HeLa; for IC50: Homo sapiens, at least one of MCF-7, SMMC-7721, HeLa, strong cytotoxicity, read-out: IC50 against at least one cancer cell line
Experimental: as §1, §2

Structure (SMILES): COC(=O)[C@]1(C)CCC[C@]2(C)c3cc(Br)c4nc(CN5CCCC5)c(CN5CCCC5)nc4c3CCC12 (stereo partly shown) [Compound 4e, Methyl 12-bromo-2′,3′-bis(pyrrolidin-1-ylmethyl)-13,14-pyrazinyldeisopropyl-dehydroabietate]
- IC50 [1]: 20.4 ± 1.51 µM
- IC50 [2]: 18.6 ± 2.37 µM
- IC50 [3]: 12.8 ± 1.26 µM
- IC50 [4]: > 50 µM
- cytotoxic activity against the three cancer cell lines (in words) [5]: moderate cytotoxic activity

Structure (SMILES): COC(=O)[C@]1(C)CCC[C@]2(C)c3cc(Br)c4nc(Cn5cnnn5)c(Cn5cnnn5)nc4c3CCC12 (stereo partly shown) [Compound 4n, Methyl 12-bromo-2′,3′-bis((1H-tetrazol-1-yl)methyl)-13,14-pyrazinyl-deisopropyl-dehydroabietate]
- IC50 [1]: 15.8 ± 0.81 µM
- IC50 [2]: 10.9 ± 1.68 µM
- IC50 [3]: 13.3 ± 2.71 µM
- IC50 [4]: > 50 µM
- cytotoxic activity against the three cancer cell lines (in words) [5]: moderate cytotoxic activity

Structure (SMILES): CCCCN(CCCC)Cc1nc2c(Br)cc3c(c2nc1CN(CCCC)CCCC)CCC1[C@](C)(C(=O)OC)CCC[C@]31C (stereo partly shown) [Compound 4d, Methyl 12-bromo-2′,3′-bis((dibutylamino)methyl)-13,14-pyrazinyldeisopropyl-dehydroabietate]
- IC50 [1]: 28.1 ± 0.92 µM
- IC50 [2]: 32.7 ± 2.69 µM
- IC50 [3]: 25.3 ± 3.01 µM
- IC50 [4]: > 50 µM
- cytotoxic activity against the three cancer cell lines (in words) [5]: weak activity

Structure (SMILES): COC(=O)[C@]1(C)CCC[C@]2(C)c3cc(Br)c4nc(CN5CCCCC5)c(CN5CCCCC5)nc4c3CCC12 (stereo partly shown) [Compound 4f, Methyl 12-bromo-2′,3′-bis(piperidin-1-ylmethyl)-13,14-pyrazinyldeisopropyl-dehydroabietate]
- IC50 [1]: 8.95 ± 0.63 µM
- IC50 [2]: 7.71 ± 0.82 µM
- IC50 [3]: 5.98 ± 0.37 µM
- IC50 [4]: 42.2 ± 2.78 µM
- IC50 [5]: < 10 µM

Structure (SMILES): CC(C)c1ccc2c(c1)CC[C@H]1[C@](C)(C(=O)O)CCC[C@]21C [Compound 1, Dehydroabietic acid]
- IC50 [1]: > 50 µM
- IC50 [2]: > 50 µM
- IC50 [3]: > 50 µM
- IC50 [4]: > 50 µM

Structure (SMILES): COC(=O)[C@]1(C)CCC[C@]2(C)c3cc(Br)c4nc(Cn5ccnc5)c(Cn5ccnc5)nc4c3CCC12 (stereo partly shown) [Compound 4l, Methyl 12-bromo-2′,3′-bis((1H-imidazol-1-yl)methyl)-13,14-pyrazinyl-deisopropyl-dehydroabietate]
- IC50 [1]: 22.8 ± 3.21 µM
- IC50 [2]: 15.3 ± 2.06 µM
- IC50 [3]: 12.7 ± 1.35 µM
- IC50 [4]: > 50 µM
- cytotoxic activity against the three cancer cell lines (in words) [5]: moderate cytotoxic activity

Structure (SMILES): COC(=O)[C@]1(C)CCC[C@]2(C)c3cc(Br)c4nc(CN5CCOCC5)c(CN5CCOCC5)nc4c3CCC12 (stereo partly shown) [Compound 4h, Methyl 12-bromo-2′,3′-bis(morpholinomethyl)-13,14-pyrazinyldeisopropyl-dehydroabietate]
- IC50 [1]: 12.3 ± 1.03 µM
- IC50 [2]: 16.3 ± 1.85 µM
- IC50 [3]: 9.67 ± 1.13 µM
- IC50 [4]: 36.6 ± 3.12 µM

Structure (SMILES): COC(=O)[C@]1(C)CCC[C@]2(C)c3cc(Br)c4nc(CN5CCN(C)CC5)c(CN5CCN(C)CC5)nc4c3CCC12 (stereo partly shown) [Compound 4j, Methyl 12-bromo-2′,3′-bis((4-methylpiperazin-1-yl)methyl)-13,14-pyrazinyl-deisopropyl-dehydroabietate]
- IC50 [1]: 12.2 ± 0.75 µM
- IC50 [2]: 8.03 ± 0.7 µM
- IC50 [3]: 6.62 ± 0.59 µM
- IC50 [4]: 29.5 ± 3.61 µM
- IC50 [5]: < 10 µM

Structure (SMILES): COC(=O)[C@]1(C)CCC[C@]2(C)c3cc(Br)c4nc(Cn5ccnn5)c(Cn5ccnn5)nc4c3CCC12 (stereo partly shown) [Compound 4m, Methyl 12-bromo-2′,3′-bis((1H-1,2,3-triazol-1-yl)methyl)-13,14-pyrazinyl-deisopropyl-dehydroabietate]
- IC50 [1]: 3.73 ± 0.62 µM
- IC50 [2]: 4.66 ± 0.42 µM
- IC50 [3]: 2.18 ± 0.37 µM
- IC50 [4]: 18.4 ± 1.73 µM
- IC50 [5]: < 10 µM

Structure (SMILES): CCN1CCN(Cc2nc3c(Br)cc4c(c3nc2CN2CCN(CC)CC2)CCC2[C@](C)(C(=O)OC)CCC[C@]42C)CC1 (stereo partly shown) [Compound 4k, Methyl 12-bromo-2′,3′-bis((4-ethylpiperazin-1-yl)methyl)-13,14-pyrazinyl-deisopropyl-dehydroabietate]
- IC50 [1]: 38.7 ± 2.87 µM
- IC50 [2]: 26.4 ± 3.73 µM
- IC50 [3]: 13.5 ± 2.21 µM
- IC50 [4]: > 50 µM
- cytotoxic activity against the three cancer cell lines (in words) [5]: moderate cytotoxic activity

Structure (SMILES): COC(=O)[C@]1(C)CCC[C@]2(C)c3cc(Br)c4nc(CN5CCCCCC5)c(CN5CCCCCC5)nc4c3CCC12 (stereo partly shown) [Compound 4g, Methyl 2′,3′-bis(azepan-1-ylmethyl)-12-bromo-13,14-pyrazinyldeisopropyl-dehydroabietate]
- IC50 [1]: > 50 µM
- IC50 [2]: 27.9 ± 2.91 µM
- IC50 [3]: 32 ± 4.21 µM
- IC50 [4]: > 50 µM
- cytotoxic activity against the three cancer cell lines (in words) [5]: weak activity

Structure (SMILES): COC(=O)[C@]1(C)CCC[C@]2(C)c3cc(Br)c4nc(Cn5ncnn5)c(Cn5ncnn5)nc4c3CCC12 (stereo partly shown) [Compound 4o, Methyl 12-bromo-2′, 3′-bis((2H-tetrazol-2-yl)methyl)-13,14-pyrazinyl-deisopropyl-dehydroabietate]
- IC50 [1]: 24.4 ± 1.69 µM
- IC50 [2]: 16.9 ± 1.95 µM
- IC50 [3]: 20.5 ± 3.12 µM
- IC50 [4]: > 50 µM
- cytotoxic activity against the three cancer cell lines (in words) [5]: moderate cytotoxic activity

Structure (SMILES): COC(=O)[C@]1(C)CCC[C@]2(C)c3cc(Br)c4nc(CN5CCNCC5)c(CN5CCNCC5)nc4c3CCC12 (stereo partly shown) [Compound 4i, Methyl 12-bromo-2′,3′-bis(piperazin-1-ylmethyl)-13,14-pyrazinyldeisopropyl-dehydroabietate]
- IC50 [1]: 5.89 ± 0.56 µM
- IC50 [2]: 4.32 ± 0.64 µM
- IC50 [3]: 5.05 ± 0.72 µM
- IC50 [4]: 21.9 ± 2.7 µM
- IC50 [5]: < 10 µM

Structure (SMILES): COC(=O)[C@]1(C)CCC[C@]2(C)c3cc(Br)c4nc(CBr)c(CBr)nc4c3CCC12 (stereo partly shown) [Compound 3]
- IC50 [1]: > 50 µM
- IC50 [2]: 45.8 ± 5.28 µM
- IC50 [3]: 37.7 ± 3.75 µM
- IC50 [4]: > 50 µM
- cytotoxicity to HeLa and/or SMMC-7721 cell lines (in words) [5]: mild cytotoxicity

Structure (SMILES): COc1cc([C@@H]2c3cc4c(cc3[C@@H](O[C@@H]3O[C@@H]5CO[C@@H](C)O[C@H]5[C@H](O)[C@H]3O)[C@H]3COC(=O)[C@H]23)OCO4)cc(OC)c1O [Etoposide, reference compound]
- IC50 [1]: 0.73 ± 0.07 µM
- IC50 [2]: 0.69 ± 0.18 µM
- IC50 [3]: 0.87 ± 0.16 µM
- IC50 [4]: 8.89 ± 0.38 µM

Structure (SMILES): COC(=O)[C@]1(C)CCC[C@]2(C)c3cc(Br)c(N)c(N)c3CCC12 (stereo partly shown) [Compound 2]
- IC50 [1]: > 50 µM
- IC50 [2]: > 50 µM
- IC50 [3]: 43.3 ± 3.26 µM
- IC50 [4]: > 50 µM
- cytotoxicity to HeLa and/or SMMC-7721 cell lines (in words) [5]: mild cytotoxicity

Structure (SMILES): COC(=O)[C@]1(C)CCC[C@]2(C)c3cc(Br)c4nc(CN(C)C)c(CN(C)C)nc4c3CCC12 (stereo partly shown) [Compound 4a, Methyl 12-bromo-2′,3′-bis((dimethylamino)methyl)-13,14-pyrazinyldeisopropyl-dehydroabietate]
- IC50 [1]: 2.36 ± 0.29 µM
- IC50 [2]: 1.65 ± 0.22 µM
- IC50 [3]: 2.08 ± 0.43 µM
- IC50 [4]: 15.7 ± 0.65 µM

Structure (SMILES): CCCN(CCC)Cc1nc2c(Br)cc3c(c2nc1CN(CCC)CCC)CCC1[C@](C)(C(=O)OC)CCC[C@]31C (stereo partly shown) [Compound 4c, Methyl 12-bromo-2′,3′-bis((dipropylamino)methyl)-13,14-pyrazinyldeisopropyl-dehydroabietate]
- IC50 [1]: 21 ± 1.27 µM
- IC50 [2]: 11 ± 0.58 µM
- IC50 [3]: 8.67 ± 0.65 µM
- IC50 [4]: > 50 µM

From paper PMC6152277, “Synthesis and Evaluation of New Quinoxaline Derivatives of Dehydroabietic Acid as Potential Antitumor Agents” (Molecules : A Journal of Synthetic Chemistry and Natural …, 2017)
